Measured values taken from patent publication US10781211B2, “Spirocycle compounds and methods of making and using same” (Lundbeck La Jolla Research Center, Inc., priority 2016, dated 2020).

Key:
Assay type in all cases: in vivo
Details in all cases: 5 mg/kg oral gavage
MAGL = MAGL (Mus musculus (Mouse), UniProt O35678); assay: Mouse brain proteomes from inhibitor treated mice (oral gavage, sacrifice 4 h after administration, ABPP analysis)
Method: (§1) Preparation of Mouse Brain Proteomes from Inhibitor Treated Mice.
(§2) Inhibitors were administered to wild-type C57Bl/6J by oral gavage in a vehicle, e.g. PEG400/Ethanol/PBS (7/2/1). Each animal was sacrificed 4 h following administration and brain proteomes were prepared and analyzed according to previously established methods (See Niphakis, M. J., et al. (2011) ACS Chem. Neurosci. and Long, J. Z., et al. Nat. Chem. Biol. 5:37-44). Data from this assay is shown in Table 2 (% inhibition at 5 mg/kg).

FAAH = FAAH (Mus musculus (Mouse), UniProt O08914); assay: Mouse brain proteomes from inhibitor treated mice (oral gavage, sacrifice 4 h after administration, ABPP analysis), FAAH
Method: as §1, §2

ABHD6 = ABHD6 (Mus musculus (Mouse), UniProt Q8R2Y0); assay: Mouse brain proteomes from inhibitor treated mice (oral gavage, sacrifice 4 h after administration, ABPP analysis), ABHD6
Method: as §1, §2

Sequence of MAGL (O35678 whole entry): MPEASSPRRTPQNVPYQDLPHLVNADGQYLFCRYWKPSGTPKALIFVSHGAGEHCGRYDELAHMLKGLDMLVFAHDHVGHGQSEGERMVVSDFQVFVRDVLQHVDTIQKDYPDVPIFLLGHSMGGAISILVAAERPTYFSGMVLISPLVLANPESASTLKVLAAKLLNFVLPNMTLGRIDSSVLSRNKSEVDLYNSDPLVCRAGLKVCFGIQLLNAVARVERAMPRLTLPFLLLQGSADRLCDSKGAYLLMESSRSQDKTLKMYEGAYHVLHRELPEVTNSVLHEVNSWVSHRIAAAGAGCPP
Sequence of ABHD6 (Q8R2Y0 whole entry): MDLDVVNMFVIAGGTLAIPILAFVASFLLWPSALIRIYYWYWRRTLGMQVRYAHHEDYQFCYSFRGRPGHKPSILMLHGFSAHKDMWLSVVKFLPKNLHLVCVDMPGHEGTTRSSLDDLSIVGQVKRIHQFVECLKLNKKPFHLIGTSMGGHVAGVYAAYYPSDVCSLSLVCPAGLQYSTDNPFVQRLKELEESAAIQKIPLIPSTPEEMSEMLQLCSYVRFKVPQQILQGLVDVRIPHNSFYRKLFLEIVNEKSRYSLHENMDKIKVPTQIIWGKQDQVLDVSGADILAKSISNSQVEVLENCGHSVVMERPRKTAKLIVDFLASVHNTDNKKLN
Sequence of FAAH (O08914 whole entry): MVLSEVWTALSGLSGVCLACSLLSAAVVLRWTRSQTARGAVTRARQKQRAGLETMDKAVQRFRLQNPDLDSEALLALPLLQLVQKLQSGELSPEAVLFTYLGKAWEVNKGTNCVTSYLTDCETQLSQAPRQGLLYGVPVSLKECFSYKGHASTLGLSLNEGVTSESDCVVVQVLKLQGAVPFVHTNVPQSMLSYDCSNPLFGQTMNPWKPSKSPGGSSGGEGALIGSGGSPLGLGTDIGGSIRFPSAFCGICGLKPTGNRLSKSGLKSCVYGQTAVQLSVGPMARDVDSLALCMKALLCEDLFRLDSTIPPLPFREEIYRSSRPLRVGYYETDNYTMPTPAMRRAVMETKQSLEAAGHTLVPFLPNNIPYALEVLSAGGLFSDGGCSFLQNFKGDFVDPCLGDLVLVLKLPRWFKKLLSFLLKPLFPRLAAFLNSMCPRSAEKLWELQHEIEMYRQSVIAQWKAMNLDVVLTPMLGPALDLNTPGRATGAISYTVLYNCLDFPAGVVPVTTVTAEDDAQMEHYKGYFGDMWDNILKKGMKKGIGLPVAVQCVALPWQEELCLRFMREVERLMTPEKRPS

| SMILES | MAGL % Inh 5 mg/kg (mouse) (MAGL) | FAAH % Inh 5 mg/kg (mouse) (FAAH) | ABHD6 % Inh 5 mg/kg (mouse) (ABHD6) |
| --- | --- | --- | --- |
| CN1CCCc2ccc(CN3CCCC34CCN(C(=O)OC(C(F)(F)F)C(F)(F)F)CC4)cc21 [Example 68, 1,1,1,3,3,3-Hexafluoropropan-2-yl 1-((1-methyl-1,2,3,4-tetrahydroquinolin-7-yl)methyl)-1,8-diazaspiro[4.5]decane-8-carboxylate] | ### (### is ≥ 75%) | # (# is < 25%) | # (# is < 25%) |
| O=C(OC(C(F)(F)F)C(F)(F)F)N1CCC2(CCCN2Cc2cccc(N3CCCC3)c2Cl)CC1 [Example 81, 1,1,1,3,3,3-Hexafluoropropan-2-yl 1-(2-chloro-3-(pyrrolidin-1-yl)benzyl)-1,8-diazaspiro[4.5]decane-8-carboxylate] | ### (### is ≥ 75%) | # (# is < 25%) | # (# is < 25%) |
| O=C(OC(C(F)(F)F)C(F)(F)F)N1CCC2(CCCN2Cc2ccc(Cl)cc2N2CCC(F)(F)CC2)CC1 [Example 101, 1,1,1,3,3,3-Hexafluoropropan-2-yl 1-(4-chloro-2-(4,4-difluoropiperidin-1-yl)benzyl)-1,8-diazaspiro[4.5]decane-8-carboxylate] | ### (### is ≥ 75%) | # (# is < 25%) | # (# is < 25%) |
| O=C(O)C1CCN(c2cc(C(F)(F)F)ccc2CN2CCCC23CCN(C(=O)OC(C(F)(F)F)C(F)(F)F)CC3)CC1 [Example 121, 1-(2-((8-(((1,1,1,3,3,3-Hexafluoropropan-2-yl)oxy)carbonyl)-1,8-diazaspiro[4.5]decan-1-yl)methyl)-5-(trifluoromethyl)phenyl)piperidine-4-carboxylic acid] | ### (### is ≥ 75%) | # (# is < 25%) | # (# is < 25%) |
| CC(=O)N1CCN(c2cc(Cl)ccc2CN2CCCC23CCN(C(=O)OC(C(F)(F)F)C(F)(F)F)CC3)CC1 [Example 99, 1,1,1,3,3,3-Hexafluoropropan-2-yl 1-(2-(4-acetylpiperazin-1-yl)-4-chlorobenzyl)-1,8-diazaspiro[4.5]decane-8-carboxylate] | ### (### is ≥ 75%) | # (# is < 25%) | # (# is < 25%) |
| CCc1cc(CN2CCCC23CCN(C(=O)OC(C(F)(F)F)C(F)(F)F)CC3)ccc1F [Example 150, 1,1,1,3,3,3-Hexafluoropropan-2-yl 1-(3-ethyl-4-fluorobenzyl)-1,8-diazaspiro[4.5]decane-8-carboxylate] | ### (### is ≥ 75%) | # (# is < 25%) | # (# is < 25%) |
| O=C(OC(C(F)(F)F)C(F)(F)F)N1CCC2(CCCN2Cc2cc(N3CCC3)cc(C(F)(F)F)c2)CC1 [Example 47, 1,1,1,3,3,3-Hexafluoropropan-2-yl 1-(3-(azetidin-1-yl)-5-(trifluoromethyl)benzyl)-1,8-diazaspiro[4.5]decane-8-carboxylate] | ### (### is ≥ 75%) | # (# is < 25%) | # (# is < 25%) |
| CC(=O)NC1CCN(c2cc(C(F)(F)F)ccc2CN2CCCC23CCN(C(=O)OC(C(F)(F)F)C(F)(F)F)CC3)CC1 [Example 93, 1,1,1,3,3,3-Hexafluoropropan-2-yl 1-(2-(4-acetamidopiperidin-1-yl)-4-(trifluoromethyl)benzyl)-1,8-diazaspiro[4.5]decane-8-carboxylate] | ### (### is ≥ 75%) | # (# is < 25%) | # (# is < 25%) |
| O=C(OC(C(F)(F)F)C(F)(F)F)N1CCC2(CCCN2Cc2cc(N3CCS(=O)(=O)CC3)cc(C(F)(F)F)c2)CC1 [Example 42, 1,1,1,3,3,3-Hexafluoropropan-2-yl 1-(3-(1,1-dioxidothiomorpholino)-5-(trifluoromethyl)benzyl)-1,8-diazaspiro[4.5]decane-8-carboxylate] | ### (### is ≥ 75%) | # (# is < 25%) | # (# is < 25%) |
| CCc1cc(CN2CCC3(CCN(C(=O)OC(C(F)(F)F)C(F)(F)F)CC3)C2)ccc1F [Example 152, 1,1,1,3,3,3-Hexafluoropropan-2-yl 2-(3-ethyl-4-fluorobenzyl)-2,8-diazaspiro[4.5]decane-8-carboxylate] | ### (### is ≥ 75%) | # (# is < 25%) | ### (### is ≥ 75%) |
| CS(=O)(=O)N1CCN(c2cc(C(F)(F)F)ccc2CN2CCCC23CCN(C(=O)OC(C(F)(F)F)C(F)(F)F)CC3)CC1 [Example 89, 1,1,1,3,3,3-Hexafluoropropan-2-yl 1-(2-(4-(methylsulfonyl)piperazin-1-yl)-4-(trifluoromethyl)benzyl)-1,8-diazaspiro[4.5]decane-8-carboxylate] | # (# is < 25%) | # (# is < 25%) | # (# is < 25%) |
| O=C(O)C1CCN(c2cc(C(F)(F)F)ccc2CN2CCC3(CCN(C(=O)OC(C(F)(F)F)C(F)(F)F)CC3)C2)CC1 [Example 119, 1-(2-((8-(((1,1,1,3,3,3-Hexafluoropropan-2-yl)oxy)carbonyl)-2,8-diazaspiro[4.5]decan-2-yl)methyl)-5-(trifluoromethyl)phenyl)piperidine-4-carboxylic acid] | ### (### is ≥ 75%) | # (# is < 25%) | ### (### is ≥ 75%) |
| O=C(OC(C(F)(F)F)C(F)(F)F)N1CCC2(CCCN2Cc2cc(Cl)cc(N3CCOCC3)c2)CC1 [Example 33, 1,1,1,3,3,3-Hexafluoropropan-2-yl 1-(3-chloro-5-morpholinobenzyl)-1,8-diazaspiro[4.5]decane-8-carboxylate] | ### (### is ≥ 75%) | – | # (# is < 25%) |
| O=C(O)C1CCN(Cc2cc(C(F)(F)F)ccc2CN2CCCC23CCN(C(=O)OC(C(F)(F)F)C(F)(F)F)CC3)CC1 [Example 238] | ### (### is ≥ 75%) | # (# is < 25%) | # (# is < 25%) |
| O=C(O)C1CCN(C(=O)c2cc(C(F)(F)F)ccc2CN2CCCC23CCN(C(=O)OC(C(F)(F)F)C(F)(F)F)CC3)CC1 [Example 281] | # (# is < 25%) | # (# is < 25%) | # (# is < 25%) |
| O=C(OC(C(F)(F)F)C(F)(F)F)N1CCC2(CCCN2Cc2ccc(F)c(OCCF)c2)CC1 [Example 29, 1,1,1,3,3,3-Hexafluoropropan-2-yl 1-(4-fluoro-3-(2-fluoroethoxy)benzyl)-1,8-diazaspiro[4.5]decane-8-carboxylate] | ### (### is ≥ 75%) | – | ### (### is ≥ 75%) |
| O=C(OC(C(F)(F)F)C(F)(F)F)N1CCC2(CCCN2Cc2ccccc2Cl)CC1 [Example 60, 1,1,1,3,3,3-Hexafluoropropan-2-yl 1-(2-chlorobenzyl)-1,8-diazaspiro[4.5]decane-8-carboxylate] | ### (### is ≥ 75%) | – | # (# is < 25%) |
| O=C(O)c1cc(CN2CCCC23CCN(C(=O)OC(C(F)(F)F)C(F)(F)F)CC3)ccc1C(F)(F)F [Example 179, 5-((8-((1,1,1,3,3,3-Hexafluoropropan-2-yloxy)carbonyl)-1,8-diazaspiro[4.5]decan-1-yl)methyl)-2-(trifluoromethyl)benzoic acid] | ### (### is ≥ 75%) | – | # (# is < 25%) |
| COc1c(Cl)cccc1CN1CCCC12CCN(C(=O)OC(C(F)(F)F)C(F)(F)F)CC2 [Example 10, 1,1,1,3,3,3-Hexafluoropropan-2-yl 1-(3-chloro-2-methoxybenzyl)-1,8-diazaspiro[4.5]decane-8-carboxylate] | ### (### is ≥ 75%) | – | # (# is < 25%) |
| O=C(OC(C(F)(F)F)C(F)(F)F)N1CCC2(CCCN2Cc2ccc(Cl)cc2N2CCC2)CC1 [Example 107, 1,1,1,3,3,3-Hexafluoropropan-2-yl 1-(2-(azetidin-1-yl)-4-chlorobenzyl)-1,8-diazaspiro[4.5]decane-8-carboxylate] | ### (### is ≥ 75%) | – | # (# is < 25%) |
| O=C(OC(C(F)(F)F)C(F)(F)F)N1CCC2(CCN(Cc3ccc(C(F)(F)F)c(N4CCCC4)c3)C2)CC1 [Example 157, 1,1,1,3,3,3-Hexafluoropropan-2-yl 2-(3-(pyrrolidin-1-yl)-4-(trifluoromethyl)benzyl)-2,8-diazaspiro[4.5]decane-8-carboxylate] | ### (### is ≥ 75%) | # (# is < 25%) | – |
| CC1(C)CC2(CCN(C(=O)OC(C(F)(F)F)C(F)(F)F)CC2)CN1Cc1ccc(Cl)cc1 [Example 48, 1,1,1,3,3,3-Hexafluoropropan-2-yl 2-(4-chlorobenzyl)-3,3-dimethyl-2,8-diazaspiro[4.5]decane-8-carboxylate] | ### (### is ≥ 75%) | # (# is < 25%) | – |
| O=C(OC(C(F)(F)F)C(F)(F)F)N1CCC2(CCCN2Cc2ccc(OCCF)cc2)CC1 [Example 31, 1,1,1,3,3,3-Hexafluoropropan-2-yl 1-(4-(2-fluoroethoxy)benzyl)-1,8-diazaspiro[4.5]decane-8-carboxylate] | ### (### is ≥ 75%) | # (# is < 25%) | – |
